According to US20220378780A1, “PHARMACEUTICAL COMPOSITIONS COMPRISING POH DERIVATIVES” (NeOnc Technologies, Inc., priority 2019, published 2022):
Entries after “also recorded” stand apart in the source; their conditions may differ. Like-named read-outs stand apart in the source and are kept apart here.

Columns and labels:
[1] = test system: ER stress (CHOP) in TMZ sensitive and resistant U251 glioma cells; experiment: Western blot of ER stress (CHOP) in U251 glioma cells; format: cell-based, human; conditions: 18 hr treatment
Experimental: TMZ sensitive and resistant glioma cells Western blots were performed after TMZ sensitive and resistant glioma cells were treated with the TMZ-POH conjugate for 18 hr. […] Activation of the proapoptic protein CHOP was shown at concentrations as low as 60 uM of TMZ-POH.

HUT78 cells [2] = experiment: FACS analysis of cell death with 7-AAD; format: cell-based, human; conditions: 72 hours
Text: (§1) 2. Material and methods 2.1. […] 2.2. […] 2.3. […] 2.4. […] 2.5.

Toxicity studies in mice = format: in vivo
Text: (§2) Compared to both of its individual components, TMZ and POH, NEO212 exerts substantially greater cytotoxic activity, potentially via involvement of the pro-apoptotic module of the ER stress response mechanism, although its alkylating activity might contribute as well. As a next step in NEO212's development, in vivo experiments in immunodeficient murine CTCL models should be performed. We have attempted such models, but tumor take with our CTCL cell lines was unacceptably low, not inconsistent with reported challenges of achieving consistent tumor growth with these and other CTCL cell lines in general^57-59 It is conceivable that serial passage of positive tumors in mice would yield more aggressive cells, and we are considering pursuing this approach.

[3] = Toxicity studies in Beagle dogs; format: in vivo; conditions: Beagle dogs (unpublished)
Text: as §2

[4] = test system: tumor brain endothelial cells (TuBEC); experiment: MTT cytotoxicity assay, tumor brain endothelial cells; format: cell-based
Text: (§3) Cancer Lett. 2011 Mar. 28; 302(2):100-8.

[5] = test system: TMZ sensitive (U251) cells; experiment: Colony forming assay, TMZ sensitive U251; format: cell-based, human
Experimental: (§4) Colony forming assays were carried out after cells were treated with TMZ alone, POH alone, and the TMZ-POH conjugate. […] Cancer Lett. 2011 Mar. 28; 302(2):100-8.

HUT78 cells [6] = experiment: MTT cell viability assay, HUT78 (Example 15)
Experimental: Pharmacological agents—NEO212 was dissolved in DMSO at 100 mM. TMZ was purchased from Sigma Aldrich (St. Louis, Mo.) and dissolved in DMSO (Santa Cruz Biotechnology, Dallas, Tex.) to a concentration of 50 mM. POH was purchased from Sigma-Aldrich and diluted in DMSO to 100 mM. […] Stock solutions of all drugs were stored at −20° C. Staurosporine (STSP) was purchased from Selleck Chemicals (Houston, Tex.), stored at 4° C. protected from light, and dissolved in DMSO before use. Ascorbic acid (AA) and beta-mercaptoethanol (b-ME) (Sigma Aldrich) were prepared fresh before use. Crystalline AA was dissolved in phosphate-buffered saline (PBS) to 25 mM; b-ME was diluted in medium to 25 mM. […] Cell lines—Three different human CTLC cell lines were used. […] Both media also contained 100 U/mL penicillin and 0.1 mg/mL streptomycin. Penicillin, streptomycin, and RPMI (prepared with raw materials from Cellgro/MediaTech, Manassas, Va.) were provided by the Cell Culture Core lab of the USC/Norris Comprehensive Cancer Center. […] Cells were kept in a humidified incubator at 37° C. and a 5% CO2 atmosphere. FBS was obtained from Omega Scientific (Tarzana, Calif.) and from X&Y Cell Culture (Kansas City, Mo.). […] MTT assay—Methylthiazoletetrazolium (MTT) assays were performed as follows. Cells were seeded into 96-well plates in a volume of 50 μL per well at 3.0-5.0×10^5 cells/mL. An additional 50 μL of medium containing various concentrations of drug (or vehicle) was added and the cells were incubated for different lengths of time. This was followed by the addition of 10 μL thiazolyl-blue tetrazolium (i.e., MTT; Sigma Aldrich) from a stock solution of 5 mg/mL in phosphate-buffered saline (PBS). Cells were returned to the incubator for 4 hours. Thereafter, the reaction was stopped and the cells were lysed by the addition of 100 μL solubilization solution (10% sodium dodecyl sulfate in 0.01 M hydrochloric acid). The 96-well plate was left in the cell culture incubator over night for complete solubilization of the MTT crystals, and the optical density (OD) of each well was determined the next day in an ELISA plate reader at 560 nm. The background value (=OD of control wells containing medium without cells+MTT+solubilization solution) was subtracted from all measured values. In individual experiments, each treatment condition was set up in quadruplicate, and each experiment was repeated several times independently. […] Cell proliferation analysis—Cell proliferation was assessed by counting cells over time. Independent cell cultures were exposed to different concentrations of NEO212. At different times, aliquots of cells were removed, mixed with Trypan blue, and counted in a hemocytometer. Blue cells were considered dead, whereas unstained cells were counted as live cells. […] Fluorescence-activated cell sorting (FACS) analysis—Cells were seeded in 6-well tissue culture plates at 2×10^5 cells/mL, followed by drug treatment. After 72 hours, cells were collected, washed twice with PBS, transferred to a microcentrifuge tube, and suspended in 200 μL of 1× binding buffer solution, which was made fresh from 10x binding buffer (0.2 μm sterile-filtered 0.1 M HEPES, pH 7.4; 1.4 M NaCl; 25 mM CaCl2)). Then 1 μL of a 1 mg/mL 7-amino-actinomycin D (7-AAD) solution (Thermo Fisher Scientific, Waltham, Mass.) was added. After 20 minutes of incubation on ice, cell fluorescence was analyzed on a FACSAria Flow Cytometer (Becton Dickinson Biosciences Ltd., Franklin Lakes, N.J.).

[7] = test system: TMZ resistant (U251TR) U251 cells; experiment: Colony forming assay, TMZ resistant U251TR; format: cell-based, human
Experimental: as §4

[8] = test system: U87, A172 and U251 human glioma cells; experiment: MTT cytotoxicity assay on human malignant glioma cells; format: cell-based
Text: In vitro efficacy of the present composition can be determined using methods well known in the art. For example, the cytotoxicity of the present monoterpene (or sesquiterpene) and/or the therapeutic agents may be studied by MTT [3-(4,5-dimethylthiazol-2-yl)-2,5-diphenyl tetrazolium bromide] cytotoxicity assay. MTT assay is based on the principle of uptake of MTT, a tetrazolium salt, by metabolically active cells where it is metabolized into a blue colored formazon product, which can be read spectrometrically. J. of Immunological Methods 65: 55 63, 1983. The cytotoxicity of the present monoterpene (or sesquiterpene) derivative and/or the therapeutic agents may be studied by colony formation assay. Functional assays for inhibition of VEGF secretion and IL-8 secretion may be performed via ELISA. Cell cycle block by the present monoterpene (or sesquiterpene) derivative and/or the therapeutic agents may be studied by standard propidium iodide (PI) staining and flow cytometry. Invasion inhibition may be studied by Boyden chambers. In this assay a layer of reconstituted basement membrane, Matrigel, is coated onto chemotaxis filters and acts as a barrier to the migration of cells in the Boyden chambers. Only cells with invasive capacity can cross the Matrigel barrier. Other assays include, but are not limited to cell viability assays, apoptosis assays, and morphological assays.
Then U87, A172 and U251 cells were treated with dimethyl celecoxib bisPOH carbamate (POH-DMC) (e.g., synthesized by the method in Example 1), and the MTT cytotoxicity assays performed (FIG. 2).
Then TMZ-resistant glioma cell lines U87, A172 and U251 cells were treated with temozolomide POH carbamate (POH-TMZ) (e.g., synthesized by the method in Example 3).

[9] = test system: cleaved PARP and cleaved caspases 3 and 4 in HUT78, HUT102 and MyLa cells; experiment: Western blot of apoptosis markers (cleaved PARP-1, cleaved caspases); format: cell-based, human
Text: as §1

normal astrocytes = experiment: MTT cytotoxicity assay, normal astrocytes; conditions: listed as TMZ-POH
Experimental: (§5) MTT cytotoxicity assays were carried out after cells were treated with the TMZ-POH conjugate. The MTT cytotoxicity assays were carried out as described in Chen TC, et al. Green tea epigallocatechin gallate enhances therapeutic efficacy of temozolomide in orthotopic mouse glioblastoma models. Cancer Lett. 2011 Mar. 28; 302(2):100-8.

HUT102 cells [10] = experiment: Cell proliferation by Trypan blue exclusion counting, HUT102; format: cell-based, human; conditions: HUT102, 1 μM
Text: as §1

[11] = test system: USC-04 glioma cancer stem cells; experiment: MTT cytotoxicity assay, USC-04; format: cell-based; conditions: USC-04, MTT
Text: as §3

[12] = test system: USC-02 glioma cancer stem cells; experiment: MTT cytotoxicity assay, USC-02; format: cell-based; conditions: USC-02, MTT
Text: as §3

MyLa cells [13] = experiment: Cell proliferation by Trypan blue exclusion counting, MyLa; format: cell-based, human; conditions: 1 μM
Text: as §1

HUT78 cells [14] = experiment: Cell proliferation by Trypan blue exclusion counting, HUT78; format: cell-based, human; conditions: HUT78, 1 μM
Text: as §1

HuT 78 cells = experiment: MTT assay on HuT 78 cells (Example 14); conditions: HuT 78, 72 hours
Experimental: HuT 78 cells are cutaneous T lymphocytes derived from a patient with Sézary syndrome.
HuT 78 cells were treated in vitro with (i) temozolomide (50, 100, 250 μM), (ii) POH-TMZ conjugate (“NEO212”, 25, 50, 100 μM), (iii) NEO412 which is the triple conjugate of temozolomide (TMZ), perillyl alcohol (POH), and linoleic acid (25, 50, 100, 250 μM), or (iv) vehicle alone. Seventy-two hours after the addition of drugs or vehicle, cell viability was determined by standard MTT (methylthiazoletetrazolium) assay.

[15] = test system: CHOP, c-myc and cyclin D in HUT78, HUT102 and MyLa cells; experiment: Western blot of ER stress and proliferation markers; format: cell-based, human; conditions: for lowest concentration triggering near-maximal CHOP induction: 72 hours
Text: as §1

[16] = test system: brain endothelial cells (BEC; confluent and subconfluent); experiment: MTT cytotoxicity assay, brain endothelial cells; format: cell-based
Text: as §3

[17] = test system: TMZ sensitive cells (U251); experiment: MTT cytotoxicity assay, U251
Experimental: as §5

HUT102 cells [18] = experiment: MTT cell viability assay, HUT102 (Example 15); format: cell-based, human
Text: as §1

[19] = test system: TMZ resistant cells (U251TR); experiment: MTT cytotoxicity assay, U251TR
Experimental: as §5

MyLa cells [20] = experiment: MTT cell viability assay, MyLa (Example 15); format: cell-based, human
Text: as §1

Q: With `C=C(C)C1CC=C(COC(=O)NC(=O)c2ncn3c(=O)n(C)nnc23)CC1` (centres unmarked) [NEO212] as the molecule, how does the “concentration at which activation of CHOP was shown” value ([1]; as low as) read?
A: Its value is 60 µM.

Q: And the “induction of ER stress (ERS)” value ([1]; western blot)?
A: The value was “induces ER stress”.

Q: What about the cell death (HUT78 cells [2]; HUT78, 1 μM) of the same molecule?
A: The cell death was 33%.

Q: And the cell death (HUT78 cells [2]; HUT78, 30 μM)?
A: The cell death was 50%.

Q: And the tolerability (Toxicity studies in mice)?
A: The tolerability was “very well tolerated”.

Q: And the tolerability [3]?
A: Its tolerability is “very well tolerated”.

Q: And the “cytotoxicity in MTT assay” value [4]?
A: Its value is “did not induce significant cytotoxicity”.

Q: What about the “cytotoxicity in colony forming assay” value ([5]; listed as POH-TMZ) of the same molecule?
A: The value was “substantially greater potency compared to POH alone”.

Q: What about the “cytotoxicity in colony forming assay” value ([5]; listed as TMZ-POH) of the same molecule?
A: The value was “demonstrated cytotoxicity”.

Q: What about the reduction of viability (HUT78 cells [6]; HUT78, 10 μM) of the same molecule?
A: The reduction of viability was “over 50%”.

Q: What about the “concentration of earliest effect on viability” value (HUT78 cells [6]; HUT78, 24 hours, as low as) of the same molecule?
A: Its value is 3 µM.

Q: What about the IC50 (HUT78 cells [6]; HUT78, 48 hours) of the same molecule?
A: The IC50 was < 3 µM.

Q: What about the IC50 (HUT78 cells [6]; HUT78, 72 hours) of the same molecule?
A: The IC50 was ~4 µM.

Q: And the “potency relative to that of TMZ” value (HUT78 cells [6]; HUT78 cells)?
A: Its value is “over 100 fold”.

Q: And the IC50 (HUT78 cells [6]; read-out: IC50 (50% decrease in viability), HUT78, 24 hours)?
A: The IC50 was 8 µM.

Q: What about the “cytotoxicity in colony forming assay” value ([7]; listed as POH-TMZ) of the same molecule?
A: The value was “substantially greater potency compared to POH alone”.

Q: What about the “cytotoxicity in colony forming assay” value ([7]; listed as TMZ-POH) of the same molecule?
A: The value was “demonstrated cytotoxicity”.

Q: And the “cytotoxicity in MTT assay” value [8]?
A: The value was “substantially higher kill rates”.

Q: And the “concentration at which apoptosis markers emerged” value ([9]; HUT78 and HUT102 cells)?
A: The value was 0.1 to 1.0 µM.

Q: And the “concentration required for apoptosis markers” value ([9]; MyLa cells)?
A: The value was 30 µM.

Q: What about the “induction of apoptosis markers” value ([9]; all three CTCL cell lines) of the same molecule?
A: Its value is “appearance of cleaved PARP and cleaved (i.e., activated) caspases 3 and 4”.

Q: And the “cytotoxicity in MTT assay” value (normal astrocytes)?
A: The value was “not towards normal astrocytes; also recorded: did not induce significant cytotoxicity”.

Q: What about the proliferation-inhibitory effect (HUT102 cells [10]) of the same molecule?
A: Its proliferation-inhibitory effect is “slightly less pronounced activity”.

Q: What about the IC50 [11] of the same molecule?
A: The IC50 was 150 µM.

Q: And the IC50 [12]?
A: The IC50 was 60 µM.

Q: And the proliferation-inhibitory effect (MyLa cells [13])?
A: Its proliferation-inhibitory effect is “weaker activity”.

Q: What about the proliferation-inhibitory effect (HUT78 cells [14]) of the same molecule?
A: The proliferation-inhibitory effect was “strongest effect”.

Q: What about the “cytotoxic effect on MF cells in MTT assay” value (HuT 78 cells) of the same molecule?
A: Its value is “pronounced cytotoxic effect”.

Q: What about the “lowest concentration triggering near-maximal CHOP induction” value ([15]; HUT78 cells) of the same molecule?
A: The value was 0.1 µM.

Q: And the “expression levels of c-myc and cyclin D proteins” value ([15]; HUT102 and MyLa cells)?
A: Its value is “declined”.

Q: And the “lowest concentration triggering near-maximal CHOP induction” value ([15]; HUT102 cells)?
A: The value was 1.0 µM.

Q: What about the “concentration dependence of CHOP induction” value ([15]; MyLa cells, 96 hours) of the same molecule?
A: The value was “gradual increase all the way up to 100 μM”.

Q: What about the “induction of CHOP protein” value ([15]; all three CTCL cell lines) of the same molecule?
A: Its value is “prominent induction of CHOP protein”.

Q: And the “cytotoxicity in MTT assay” value ([16]; confluent BEC)?
A: The value was “did not induce significant cytotoxicity”.

Q: What about the “cytotoxicity in MTT assay” value ([16]; subconfluent BEC, high concentrations) of the same molecule?
A: The value was “Mild to moderate cytotoxicity”.

Q: And the “cytotoxicity in MTT assay” value [17]?
A: Its value is “demonstrated cytotoxicity”.

Q: And the IC50 (HUT102 cells [18]; HUT102, 72 hours)?
A: The IC50 was 9 µM.

Q: What about the IC50 (HUT102 cells [18]; HUT102, 96 hours) of the same molecule?
A: The IC50 was 3 µM.

Q: And the “cytotoxicity in MTT assay” value [19]?
A: The value was “demonstrated cytotoxicity”.

Q: And the IC50 (MyLa cells [20]; 72 hours)?
A: Its IC50 is ~130 µM.

Q: What about the IC50 (MyLa cells [20]; 96 hours) of the same molecule?
A: Its IC50 is ~85 µM.
